Experimental findings from patent US8129417B2, “Substituted octahydrocyclopenta[C]pyrrol-4-amines as calcium channel blockers” (Abbott Laboratories, priority 2008, dated 2012) are described below.

As a reminder, the IC50 is the midpoint of a concentration-inhibition curve. What is called inhibition is the drop in the measured response relative to a control, in per cent.

Sequence of human Cav2.2 (Q00975 whole entry): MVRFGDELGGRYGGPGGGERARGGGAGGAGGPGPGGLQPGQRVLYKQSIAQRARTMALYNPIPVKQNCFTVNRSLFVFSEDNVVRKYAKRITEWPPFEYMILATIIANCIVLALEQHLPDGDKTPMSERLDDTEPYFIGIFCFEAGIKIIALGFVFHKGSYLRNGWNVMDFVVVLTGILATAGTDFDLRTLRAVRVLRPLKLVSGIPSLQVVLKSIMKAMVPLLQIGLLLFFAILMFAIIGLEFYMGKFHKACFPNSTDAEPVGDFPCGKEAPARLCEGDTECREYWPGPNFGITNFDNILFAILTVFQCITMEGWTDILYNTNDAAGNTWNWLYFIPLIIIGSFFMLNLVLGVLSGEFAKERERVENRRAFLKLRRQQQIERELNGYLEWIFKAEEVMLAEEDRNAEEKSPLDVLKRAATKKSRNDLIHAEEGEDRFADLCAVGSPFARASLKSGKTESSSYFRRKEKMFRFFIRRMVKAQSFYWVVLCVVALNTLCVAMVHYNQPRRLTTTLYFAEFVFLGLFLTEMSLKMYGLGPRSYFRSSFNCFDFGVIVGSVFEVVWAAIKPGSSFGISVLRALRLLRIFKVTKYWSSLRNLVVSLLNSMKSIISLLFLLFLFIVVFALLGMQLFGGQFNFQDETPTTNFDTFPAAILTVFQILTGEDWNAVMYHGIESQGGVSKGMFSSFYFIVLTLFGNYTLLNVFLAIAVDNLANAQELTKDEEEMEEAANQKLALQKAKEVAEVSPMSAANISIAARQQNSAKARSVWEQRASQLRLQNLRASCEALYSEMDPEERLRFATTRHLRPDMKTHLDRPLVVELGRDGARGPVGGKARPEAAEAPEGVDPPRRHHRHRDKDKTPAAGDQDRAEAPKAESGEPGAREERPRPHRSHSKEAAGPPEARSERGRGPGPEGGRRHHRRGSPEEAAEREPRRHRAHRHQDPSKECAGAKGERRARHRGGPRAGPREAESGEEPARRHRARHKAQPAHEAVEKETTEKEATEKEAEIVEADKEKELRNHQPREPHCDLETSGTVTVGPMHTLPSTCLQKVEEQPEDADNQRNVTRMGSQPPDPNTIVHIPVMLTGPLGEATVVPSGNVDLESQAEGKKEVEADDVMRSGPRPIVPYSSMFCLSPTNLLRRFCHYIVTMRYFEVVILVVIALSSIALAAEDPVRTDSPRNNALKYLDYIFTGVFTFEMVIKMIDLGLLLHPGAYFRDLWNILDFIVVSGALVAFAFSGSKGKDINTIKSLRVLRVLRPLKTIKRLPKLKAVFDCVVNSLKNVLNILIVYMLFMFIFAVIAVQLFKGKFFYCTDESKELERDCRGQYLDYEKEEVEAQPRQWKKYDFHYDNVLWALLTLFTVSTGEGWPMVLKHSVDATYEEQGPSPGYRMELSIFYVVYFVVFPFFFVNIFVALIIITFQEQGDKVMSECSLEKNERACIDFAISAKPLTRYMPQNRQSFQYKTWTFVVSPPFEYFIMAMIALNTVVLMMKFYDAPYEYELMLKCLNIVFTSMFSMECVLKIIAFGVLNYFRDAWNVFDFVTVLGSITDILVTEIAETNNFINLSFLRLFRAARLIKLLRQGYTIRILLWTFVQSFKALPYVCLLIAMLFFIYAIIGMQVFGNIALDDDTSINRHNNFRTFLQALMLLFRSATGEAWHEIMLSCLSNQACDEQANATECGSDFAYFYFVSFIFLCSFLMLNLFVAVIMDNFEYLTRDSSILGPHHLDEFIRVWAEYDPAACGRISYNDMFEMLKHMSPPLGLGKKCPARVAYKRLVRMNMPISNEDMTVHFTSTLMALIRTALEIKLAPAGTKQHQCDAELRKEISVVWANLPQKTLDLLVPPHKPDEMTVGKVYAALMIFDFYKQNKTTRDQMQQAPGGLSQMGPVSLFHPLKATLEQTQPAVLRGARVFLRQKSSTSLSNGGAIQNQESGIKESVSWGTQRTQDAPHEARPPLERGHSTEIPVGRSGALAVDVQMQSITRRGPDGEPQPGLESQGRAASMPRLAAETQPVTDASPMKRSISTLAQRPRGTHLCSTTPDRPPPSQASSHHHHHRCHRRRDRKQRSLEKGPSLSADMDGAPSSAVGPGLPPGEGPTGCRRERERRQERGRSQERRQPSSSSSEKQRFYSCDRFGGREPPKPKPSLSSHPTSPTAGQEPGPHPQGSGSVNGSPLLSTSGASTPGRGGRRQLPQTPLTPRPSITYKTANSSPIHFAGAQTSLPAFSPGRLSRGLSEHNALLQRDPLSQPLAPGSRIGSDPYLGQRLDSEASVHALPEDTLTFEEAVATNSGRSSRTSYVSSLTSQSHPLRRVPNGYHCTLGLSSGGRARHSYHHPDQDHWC
Sequence of human Cav2.2 (P54289 25-946 partner limits assumed): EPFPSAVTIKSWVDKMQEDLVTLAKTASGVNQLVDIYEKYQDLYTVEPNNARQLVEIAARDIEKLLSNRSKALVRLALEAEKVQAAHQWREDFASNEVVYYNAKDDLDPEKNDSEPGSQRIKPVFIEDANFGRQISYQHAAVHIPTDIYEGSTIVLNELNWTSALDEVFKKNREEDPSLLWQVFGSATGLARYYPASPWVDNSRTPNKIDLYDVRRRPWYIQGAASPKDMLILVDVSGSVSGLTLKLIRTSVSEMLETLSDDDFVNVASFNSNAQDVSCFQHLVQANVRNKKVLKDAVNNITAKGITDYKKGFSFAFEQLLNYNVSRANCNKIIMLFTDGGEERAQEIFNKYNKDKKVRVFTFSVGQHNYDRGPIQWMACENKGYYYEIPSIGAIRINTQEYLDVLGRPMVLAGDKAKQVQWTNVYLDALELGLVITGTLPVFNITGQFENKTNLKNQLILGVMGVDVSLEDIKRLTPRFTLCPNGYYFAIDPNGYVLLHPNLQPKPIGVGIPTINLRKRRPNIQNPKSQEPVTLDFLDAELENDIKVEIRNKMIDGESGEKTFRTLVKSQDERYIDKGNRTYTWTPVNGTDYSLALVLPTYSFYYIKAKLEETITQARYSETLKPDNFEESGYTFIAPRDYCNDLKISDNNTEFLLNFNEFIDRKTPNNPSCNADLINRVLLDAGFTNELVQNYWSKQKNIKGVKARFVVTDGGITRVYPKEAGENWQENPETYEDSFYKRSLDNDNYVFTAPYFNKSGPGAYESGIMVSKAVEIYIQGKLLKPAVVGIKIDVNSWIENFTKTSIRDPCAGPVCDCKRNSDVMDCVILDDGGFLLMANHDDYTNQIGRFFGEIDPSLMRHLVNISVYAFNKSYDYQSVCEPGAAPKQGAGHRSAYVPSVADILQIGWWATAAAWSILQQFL
Sequence of human Cav2.2 (P54289 947-1103 partner limits assumed): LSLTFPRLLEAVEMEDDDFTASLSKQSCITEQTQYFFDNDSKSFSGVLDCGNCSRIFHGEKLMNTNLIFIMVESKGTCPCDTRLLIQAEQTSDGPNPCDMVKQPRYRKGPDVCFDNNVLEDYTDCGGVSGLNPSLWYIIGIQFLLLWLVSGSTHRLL
Sequence of human Cav2.2 (P54284 whole entry partner): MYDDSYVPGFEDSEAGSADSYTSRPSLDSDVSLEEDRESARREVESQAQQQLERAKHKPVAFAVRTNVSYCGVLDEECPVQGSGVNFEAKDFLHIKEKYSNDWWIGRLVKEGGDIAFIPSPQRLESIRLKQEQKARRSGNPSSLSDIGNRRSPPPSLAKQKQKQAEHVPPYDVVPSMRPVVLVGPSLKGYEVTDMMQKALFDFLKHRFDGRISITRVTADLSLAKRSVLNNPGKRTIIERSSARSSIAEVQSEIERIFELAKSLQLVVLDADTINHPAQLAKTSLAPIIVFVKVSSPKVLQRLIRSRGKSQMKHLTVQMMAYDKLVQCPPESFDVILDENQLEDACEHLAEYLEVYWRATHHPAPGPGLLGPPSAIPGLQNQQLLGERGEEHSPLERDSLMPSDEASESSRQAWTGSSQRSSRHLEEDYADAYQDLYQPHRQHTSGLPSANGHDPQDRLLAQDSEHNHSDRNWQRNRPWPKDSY

The first experiment relates to Sprague Dawley rats. Kind of experiment: Capsaicin induced secondary mechanical hyperalgesia model. The experiment is classed as in vivo. Conditions: po, 1 h, read-out: % inhibition @ 30 mg/kg p.o., 60 minutes before testing, secondary mechanical hyperalgesia 180 minutes after intraplantar capsaicin, rat. As for the experimental part: (ii) In Vivo Data—Capsaicin Induced Secondary Mechanical Hyperalgesia Model:
Sprague Dawley rats were briefly restrained, and capsaicin was administered at 10 μg in 10 μL of vehicle by intraplantar injection into the center of the right hind paw. Secondary mechanical hyperalgesia (SMH) was measured at the heel away from the site of injection 180 minutes following capsaicin exposure. Compounds and gabapentin (positive control), were administered p.o. 60 minutes before testing (2 hours after capsaicin) or i.p. 30 minutes before testing (2.5 hours after capsaicin). SMH was measured using calibrated von Frey filaments (Stoelting, Woodale, Ill.). Following the 1 hour habituation in the testing room, rats were moved to individual plexiglass chambers that sit on top of a wire mesh to allow for access for stimulation of the plantar surface of the hind paws. Rats were allowed to acclimate to the new chambers for 15 minutes before the onset of testing. The paw withdrawal threshold was determined by increasing and decreasing stimulus intensity (force: g) and calculated using Dixon's up-down method (Chaplan, S. R.; Bach, F. W.; Pogrel, J. W.; Chung, J. M.; Yaksh, T. L.; Quantitative assessment of tactile allodynia in the rat paw. J. Neuroscience Methods 1994, 53(1), 55-63.). The filaments (maximum force of 15.0 g) were held in place for 8 seconds or until there was a withdrawal response from the mechanical stimulation.
`CN[C@@H](CC(C)C)C(=O)N[C@@H]1CC[C@H]2CN(S(=O)(=O)c3ccc(C(F)(F)F)cc3)C[C@H]21` [Example 183, N^2-methyl-N^1-((3aS,4R,6aR)-2-{[4-(trifluoromethyl)phenyl]sulfonyl}octahydrocyclopenta[c]pyrrol-4-yl)-L-leucinamide]: the inhibition in vivo at 30 mg/kg came out at 78%.
With `CC(C)(C)C[C@H](NCC1CC1)C(=O)N[C@H]1CC[C@@H]2CN(c3cccc(C(F)(F)F)n3)C[C@@H]21` [Example 479, N^2-(cyclopropylmethyl)-4-methyl-N^1-{(3aR,4S,6aS)-2-[6-(trifluoromethyl)pyridin-2-yl]octahydrocyclopenta[c]pyrrol-4-yl}-L-leucinamide], the inhibition in vivo at 30 mg/kg was 40%.
Same read-out and setting: to `CC(C)C[C@H](NS(=O)(=O)C1CC1)C(=O)N[C@@H]1CC[C@H]2CN(Cc3cccc(C(F)(F)F)c3)C[C@H]21` [Example 172, N^2-(cyclopropylsulfonyl)-N^1-{(3aS,4R,6aR)-2-[3-(trifluoromethyl)benzyl]octahydrocyclopenta[c]pyrrol-4-yl}-L-leucinamide] belongs 85%.
With `CCC[C@H](NC)C(=O)N[C@H]1CC[C@@H]2CN(S(=O)(=O)c3ccc(C(F)(F)F)cc3)C[C@@H]21` [Example 405, N^2-methyl-N^1-((3aR,4S,6aS)-2-{[4-(trifluoromethyl)phenyl]sulfonyl}octahydrocyclopenta[c]pyrrol-4-yl)-L-norvalinamide], the inhibition in vivo at 30 mg/kg stood at 32%.

For another experiment, the target named is human Cav2.2 (Homo sapiens, UniProt Q00975). Kind of experiment: Assessment of calcium channel activity using FLIPR (Ca2+ influx in IMR32 cells). The experiment is classed as cell-based. The settings on record: 60 minute pre-incubation with compound, 2 μM nifedipine, depolarized with 80 mM KCl. The method, boiled down:
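IMR32 neuroblastoma cells seeded at 1-1.2×10^5 cells/well and grown 48 h at 37 °C before FLIPR Ca2+ influx read. Percent inhibition at each concentration vs no-inhibitor activity; IC50 by non-linear sigmoidal dose-response fit.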
In the case of `CCC[C@@H](C(=O)N[C@H]1CC[C@@H]2CN(S(=O)(=O)c3ccc(C(F)(F)F)cc3)C[C@@H]21)N(C)C(=O)OC(C)(C)C` [Example 259, tert-butyl methyl((S)-1-oxo-1-((3aR,4S,6aS)-2-(4-(trifluoromethyl)phenylsulfonyl)octahydrocyclopenta[c]pyrrol-4-ylamino)pentan-2-yl)carbamate], the IC50 worked out at 1140 nM.
In the case of `CC(C)N[C@@H](CC(C)(C)C)C(=O)N[C@H]1CC[C@@H]2CN(S(=O)(=O)c3cc(C(F)(F)F)ccc3Cl)C[C@@H]21` [Example 486, N^1-((3aR,4S,6aS)-2-{[2-chloro-5-(trifluoromethyl)phenyl]sulfonyl}octahydrocyclopenta[c]pyrrol-4-yl)-N^2-isopropyl-4-methyl-L-leucinamide], the half-maximal inhibitory concentration (IC50) worked out at 1210 nM.
`CC(C)(C)[C@H](N)C(=O)N[C@@H]1CC[C@H]2CN(S(=O)(=O)c3ccc(C(F)(F)F)cc3)C[C@H]21` [Example 409, 3-methyl-N^1-((3aS,4R,6aR)-2-{[4-(trifluoromethyl)phenyl]sulfonyl}octahydrocyclopenta[c]pyrrol-4-yl)-L-valinamide]: the half-inhibitory concentration (IC50) was found to be 5020 nM.
Same read-out and setting: the figure for “N-((3aR,4S,6aS)-2-{[2-chloro-4-(trifluoromethyl)phenyl]sulfonyl}octahydrocyclopenta[c]pyrrol-4-yl)-N-methyl-L-phenylalaninamide [Example 432]” is 1670 nM.
Same read-out and setting: the figure for `CCCC[C@@H](C(=O)N[C@H]1CC[C@@H]2CN(S(=O)(=O)c3cccc(C(F)(F)F)c3)C[C@@H]21)N(C)C(=O)OC(C)(C)C` [Example 277, tert-butyl methyl((S)-1-oxo-1-((3aR,4S,6aS)-2-(3-(trifluoromethyl)phenylsulfonyl)octahydrocyclopenta[c]pyrrol-4-ylamino)hexan-2-yl)carbamate] is 720 nM; for `CCCN(C(=O)[C@H](CC(C)(C)C)N(C)C(=O)OC(C)(C)C)[C@H]1CC[C@@H]2CN(S(=O)(=O)c3ccc(C(F)(F)F)cc3)C[C@@H]21` [Example 297, tert-butyl(S)-4,4-dimethyl-1-oxo-1-(propyl((3aR,4S,6aS)-2-(4-(trifluoromethyl)phenylsulfonyl)octahydrocyclopenta[c]pyrrol-4-yl)amino)pentan-2-yl(methyl)carbamate] it is 7880 nM.
Still for that read-out and setting: the figure for `CN[C@H](C(=O)N[C@@H]1CC[C@H]2CN(S(=O)(=O)c3cccc(C(F)(F)F)c3)C[C@H]21)C(C)C` [Example 406, N^2-methyl-N^1-((3aS,4R,6aR)-2-{[3-(trifluoromethyl)phenyl]sulfonyl}octahydrocyclopenta[c]pyrrol-4-yl)-L-valinamide] is 3690 nM; for `CCC[C@H](NCC(C)(C)C)C(=O)N[C@H]1CC[C@@H]2CN(S(=O)(=O)c3cccc(C(F)(F)F)c3)C[C@@H]21` [Example 253, N^2-neopentyl-N^1-((3aR,4S,6aS)-2-{[3-(trifluoromethyl)phenyl]sulfonyl}octahydrocyclopenta[c]pyrrol-4-yl)-L-norvalinamide] it is 360 nM; for `CCN(C(=O)[C@H](CC(C)(C)C)NC)[C@H]1CC[C@@H]2CN(S(=O)(=O)c3ccc(C(F)(F)F)cc3)C[C@@H]21` [Example 434, N^1-ethyl-N^2,4-dimethyl-N^1-((3aR,4S,6aS)-2-{[4-(trifluoromethyl)phenyl]sulfonyl}octahydrocyclopenta[c]pyrrol-4-yl)-L-leucinamide] it is 2700 nM.
Regarding `CC(C)[C@H](N)CC(=O)N[C@H]1CC[C@@H]2CN(S(=O)(=O)c3cccc(C(F)(F)F)c3)C[C@@H]21` [Example 388, (3R)-3-amino-4-methyl-N-((3aR,4S,6aS)-2-{[3-(trifluoromethyl)phenyl]sulfonyl}octahydrocyclopenta[c]pyrrol-4-yl)pentanamide], the 50% inhibitory concentration (IC50) was 4530 nM.
For the molecule `CC(C)C[C@@H](C(=O)N[C@@H]1CC[C@H]2CN(Cc3ccccc3)C[C@H]21)N(C)Cc1ccc(F)cc1` [Example 513, N^1-[(3aS,4R,6aR)-2-benzyloctahydrocyclopenta[c]pyrrol-4-yl]-N^2-(4-fluorobenzyl)-N^2-methyl-L-leucinamide], the 50% inhibitory concentration (IC50) came out at 2150 nM.
Still for that read-out and setting: the figure for `CC(C)C(C(=O)N[C@H]1CC[C@@H]2CN(Cc3cccc(C(F)(F)F)c3)C[C@@H]21)C(C)C` [Example 305, 2-isopropyl-3-methyl-N-{(3aR,4S,6aS)-2-[3-(trifluoromethyl)benzyl]octahydrocyclopenta[c]pyrrol-4-yl}butanamide] is 3510 nM.
For `CC[C@H](C)[C@H](NC)C(=O)N[C@H]1CC[C@@H]2CN(S(=O)(=O)c3cccc(C(F)(F)F)c3)C[C@@H]21` [Example 410, N^2-methyl-N^1-((3aR,4S,6aS)-2-{[3-(trifluoromethyl)phenyl]sulfonyl}octahydrocyclopenta[c]pyrrol-4-yl)-L-isoleucinamide], the concentration for half-maximal inhibition (IC50) came to 1800 nM.
Same read-out and setting: the figure for `O=C(N[C@H]1CC[C@H]2CN(Cc3cccc(C(F)(F)F)c3)C[C@H]21)C(c1ccc(F)cc1)c1ccc(F)cc1` (relative stereo) [Example 136, 2,2-bis(4-fluorophenyl)-N-{(3aS*,4S*,6aR*)-2-[3-(trifluoromethyl)benzyl]octahydrocyclopenta[c]pyrrol-4-yl}acetamide] is 1100 nM.
Still for that read-out and setting: the figure for `CCC[C@H](N)C(=O)N[C@@H]1CC[C@H]2CN(S(=O)(=O)c3cccc(C(F)(F)F)c3)C[C@H]21` [Example 425, N^1-((3aS,4R,6aR)-2-{[3-(trifluoromethyl)phenyl]sulfonyl}octahydrocyclopenta[c]pyrrol-4-yl)-L-norvalinamide] is 3210 nM; for `CCCC[C@@H](C(=O)N[C@H]1CC[C@@H]2CN(S(=O)(=O)c3ccc(C(F)(F)F)cc3)C[C@@H]21)N(C)C(=O)OC(C)(C)C` [Example 343, tert-butyl methyl((S)-1-oxo-1-((3aR,4S,6aS)-2-(4-(trifluoromethyl)phenylsulfonyl)octahydrocyclopenta[c]pyrrol-4-ylamino)hexan-2-yl)carbamate] it is 1010 nM; for `O=C(N[C@@H]1CC[C@H]2CN(Cc3ccc(C(F)(F)F)cc3)C[C@H]21)[C@@H]1CCCCN1` [Example 370, (2S)—N-{(3aS,4R,6aR)-2-[4-(trifluoromethyl)benzyl]octahydrocyclopenta[c]pyrrol-4-yl}piperidine-2-carboxamide] it is 6020 nM.
The same measure, in the same setting: to `CN[C@@H](CC(C)(C)C)C(=O)N(CC1CC1)[C@H]1CC[C@@H]2CN(S(=O)(=O)c3ccc(C(F)(F)F)cc3)C[C@@H]21` [Example 436, N^1-(cyclopropylmethyl)-N^2,4-dimethyl-N^1-((3aR,4S,6aS)-2-{[4-(trifluoromethyl)phenyl]sulfonyl}octahydrocyclopenta[c]pyrrol-4-yl)-L-leucinamide] belongs 1770 nM; to `N[C@@H](Cc1ccccc1)C(=O)N[C@H]1CC[C@@H]2CN(S(=O)(=O)c3cccc(C(F)(F)F)c3)C[C@@H]21` [Example 385, N-((3aR,4S,6aS)-2-{[3-(trifluoromethyl)phenyl]sulfonyl}octahydrocyclopenta[c]pyrrol-4-yl)-L-phenylalaninamide], 1850 nM.

Staying with this experiment, now noted: IMR-32, @ 10 μM, 3 minute pre-incubation (*), read-out: percent inhibition.
Take `CC[C@H](C(=O)N[C@@H]1CC[C@H]2CN([C@@H](C)c3ccccc3)C[C@H]21)c1ccccc1` [Example 213, (2S)-2-phenyl-N-{(3aS,4R,6aR)-2-[(1S)-1-phenylethyl]octahydrocyclopenta[c]pyrrol-4-yl}butanamide]: the inhibition at 10 µM amounted to 60%.
